Reference: patent US4503256A, “Phlorophenone derivatives, processes for preparing such compounds, uses and pharmaceutical compositions of phlorophenone compounds” (Noristan Limited, priority 1981, dated 1985)
≈ marks a conversion by molar mass, not a printed value. Like-named read-outs stand apart in the source and are kept apart here.

How the values were obtained:
S. AUREUS = assay: Minimum Inhibitory Concentration (MIC), broth dilution in Brain Heart Infusion broth; type: cell-based, Staphylococcus aureus; settings: Staphylococcus aureus, read-out: MIC S. AUREUS
Protocol: (§1) For testing against the bacteria, concentrations of each of the compounds were prepared in Brain Heart Infusion broth (Oxoid CM225) in two-fold steps from 1000 μg/ml to 1 μg/ml. Solutions containing 1000 μg/ml were prepared by dissolving 20 mg of each compound in 5 ml of acetone and this was then made up to 20 ml with Brain Heart Infusion Broth. Serial two-fold dilutions were then prepared in the broth down to 1 μg/ml.
(§2) For testing against the bacteria each of the prepared test concentrations and acetone controls prepared in Brain Heart Infusion were dispensed in 2 ml amounts for each organism. A growth control of 2 ml of Brain Heart Infusion was included in each series.
(§3) To each of the prepared sets of concentrations of each compound were added 0.1 ml aliquots of the organism suspensions prepared as described previously. All the bottles were incubated at 37° C. for 48 hours in the case of the bacteria and from 5 to 15 days for the fungi (until growth controls had grown in each case).
(§4) After incubation the broths were examined for evidence of growth. The lowest concentration of the test compound which prevented growth was recorded as the Minimum Inhibitory Concentration (MIC).

St. PYOGENES = assay: as above; type: cell-based; settings: Streptococcus pyogenes, 37° C., 48 hours
Protocol: as §1, §2, §3, §4

Tr. MENTAGROPHYTES = assay: Minimum Inhibitory Concentration (MIC), dilution in Sabouraud liquid medium; type: cell-based; settings: Trichophyton mentagrophytes, 37° C., 5 to 15 days
Protocol: (§5) For testing against the fungi, concentrations of each of the compounds were prepared in Sabouraud liquid medium in two-fold steps from 100 μg/ml to 0.1 μg/ml. 500 μg/ml solutions were prepared by dissolving 10 mg in 5 ml of acetone, made up to 20 ml with Sabouraud liquid medium. 4 ml of the 500 μg/ml concentration was then made up to 20 ml with Sabouraud liquid medium to give a concentration of 100 μg/ml. Serial two-fold dilutions were prepared from this in the same medium down to 0.1 μg/ml.
(§6) For the fungi the same procedure was followed using the concentrations made up in Sabouraud liquid medium. The Nystatin concentrations were also dispensed in 2 ml amounts for each organism. Growth controls of Sabouraud liquid medium were included in each series.
as §3, §4

C. ALBICANS = assay: as above; type: cell-based; settings: Candida albicans, 37° C., 5 to 15 days
Protocol: as §5, §6, §3, §4

Sp. SCHENKII = assay: as above; type: cell-based; settings: 37° C., 5 to 15 days
Protocol: as §5, §6, §3, §4

Tr. RUBRUM = assay: as above; type: cell-based; settings: Trichophyton rubrum, 37° C., 5 to 15 days
Protocol: as §5, §6, §3, §4

Mic. CANIS = assay: as above; type: cell-based; settings: Microsporum canis, 37° C., 5 to 15 days
Protocol: as §5, §6, §3, §4

[1] = Acute oral toxicity in CD-1 mice; type: in vivo; settings: mouse, in vivo, male and female CD-1 mice, dose levels 1000, 464, 215 and 100 mg/kg, 7 days observation
Protocol: Male and female CD-1 mice were fasted for 18 hours prior to the experiment, but water was available ad libitum except during the observation period. The test compounds were prepared in 1% tragacanth and were administered orally to groups of two male and two female mice.
All compounds were tested at dose levels of 1000, 464, 215 and 100 mg/kg. Immediately after dosing, the mice were replaced in their "home" cage and were observed daily for 7 days post dose and any mortalities recorded.
The acute toxicities, as determined by the above procedure, of a number of representative compounds are given in the accompanying table.

[2] = 37° C., 48 hours, Brain Heart Infusion broth

CCCCCC(=O)c1c(O)cc(O)c(CC=C(C)C)c1O [Compound 5, 2-Caproyl-4-(3-methylbuten-2-yl)phloroglucinol]
MIC (S. AUREUS; [2]): 8 µg/mL (≈ 27.4 µM)
MIC (St. PYOGENES): 4 µg/mL (≈ 13.7 µM)
MIC (Tr. MENTAGROPHYTES): 6 µg/mL (≈ 20.5 µM)
MIC (C. ALBICANS): 13 µg/mL (≈ 44.5 µM)
MIC (Sp. SCHENKII): 13 µg/mL (≈ 44.5 µM)
MIC (Tr. RUBRUM): 3 µg/mL (≈ 10.3 µM)
MIC (Mic. CANIS): 1.6 µg/mL (≈ 5.47 µM)
LD50 at 168 h [1]: > 1000 mg/kg

CC(C)CCC(=O)c1c(O)cc(O)c(Cc2ccccc2)c1O [Compound 25, 2-Isocaproyl-4-benzylphloroglucinol]
MIC (S. AUREUS; [2]): 16 µg/mL (≈ 50.9 µM)
MIC (St. PYOGENES): 8 µg/mL (≈ 25.4 µM)
MIC (Tr. MENTAGROPHYTES): 3 µg/mL (≈ 9.54 µM)
MIC (C. ALBICANS): 13 µg/mL (≈ 41.4 µM)
MIC (Sp. SCHENKII): 25 µg/mL (≈ 79.5 µM)
MIC (Tr. RUBRUM): 6 µg/mL (≈ 19.1 µM)
MIC (Mic. CANIS): 6 µg/mL (≈ 19.1 µM)
LD50 at 168 h [1]: 1000 mg/kg

CCCC(=O)c1c(O)c2c(c(C(=O)CCC)c1O)OC(C)C2 (stereo not drawn) [Compound 37, 4,6-dihydroxy-5,7-dibutyryl-2-methyl-2,3-dihydrobenzofuran]
MIC (S. AUREUS; [2]): 125 µg/mL (≈ 408 µM)
MIC (St. PYOGENES): 32 µg/mL (≈ 104 µM)
MIC (Tr. MENTAGROPHYTES): > 100 µg/mL
MIC (C. ALBICANS): > 100 µg/mL
MIC (Sp. SCHENKII): > 100 µg/mL
MIC (Tr. RUBRUM): 100 µg/mL (≈ 326 µM)
MIC (Mic. CANIS): > 100 µg/mL
LD50 at 168 h [1]: > 215 mg/kg

C=CCc1c(O)cc(O)c(C(=O)CCCCC)c1O [Compound 18]
MIC (S. AUREUS; [2]): 16 µg/mL (≈ 60.5 µM)
MIC (St. PYOGENES): 8 µg/mL (≈ 30.3 µM)
MIC (Tr. MENTAGROPHYTES): 6 µg/mL (≈ 22.7 µM)
MIC (C. ALBICANS): 13 µg/mL (≈ 49.2 µM)
MIC (Sp. SCHENKII): 13 µg/mL (≈ 49.2 µM)
MIC (Tr. RUBRUM): 13 µg/mL (≈ 49.2 µM)
MIC (Mic. CANIS): 6 µg/mL (≈ 22.7 µM)
LD50 at 168 h [1]: > 1000 mg/kg

C=CCc1c(O)cc(O)c(C(=O)Cc2ccc(Cl)cc2)c1O [Compound 23]
MIC (S. AUREUS; [2]): 32 µg/mL (≈ 100 µM)
MIC (St. PYOGENES): 8 µg/mL (≈ 25.1 µM)
MIC (Tr. MENTAGROPHYTES): 13 µg/mL (≈ 40.8 µM)
MIC (C. ALBICANS): 13 µg/mL (≈ 40.8 µM)
MIC (Sp. SCHENKII): 25 µg/mL (≈ 78.4 µM)
MIC (Tr. RUBRUM): 13 µg/mL (≈ 40.8 µM)
MIC (Mic. CANIS): 6 µg/mL (≈ 18.8 µM)
LD50 at 168 h [1]: > 1000 mg/kg

CC(C)=CCc1c(O)cc(O)c(C(=O)C2CCCC2)c1O [Compound 9, 2-(2-Cyclopentyl-1-oxo)-4-(3-methylbuten-2-yl)phloroglucinol]
MIC (S. AUREUS; 48 h): 32 µg/mL (≈ 110 µM)
MIC (St. PYOGENES): 8 µg/mL (≈ 27.6 µM)
MIC (Tr. MENTAGROPHYTES): 6.2 µg/mL (≈ 21.4 µM)
MIC (C. ALBICANS): 6.2 µg/mL (≈ 21.4 µM)
MIC (Sp. SCHENKII): 6.2 µg/mL (≈ 21.4 µM)
MIC (Tr. RUBRUM): 3.1 µg/mL (≈ 10.7 µM)
MIC (Mic. CANIS): 1.6 µg/mL (≈ 5.51 µM)
LD50 at 168 h [1]: < 100 mg/kg

C=CCc1c(O)cc(O)c(C(=O)CC)c1O [Compound 15]
MIC (S. AUREUS; [2]): 250 µg/mL (≈ 1120 µM)
MIC (St. PYOGENES): 125 µg/mL (≈ 562 µM)
MIC (Tr. MENTAGROPHYTES): 25 µg/mL (≈ 112 µM)
MIC (C. ALBICANS): 100 µg/mL (≈ 450 µM)
MIC (Sp. SCHENKII): 50 µg/mL (≈ 225 µM)
MIC (Tr. RUBRUM): 50 µg/mL (≈ 225 µM)
MIC (Mic. CANIS): 50 µg/mL (≈ 225 µM)
LD50 at 168 h [1]: > 1000 mg/kg

CC(C)=CCc1c(O)cc(O)c(C(=O)Cc2ccc(Cl)cc2)c1O [Compound 14, 2-(4-Chlorophenyl)acetyl-4-(3-methylbuten-2-yl)phloroglucinol]
MIC (S. AUREUS; [2]): 16 µg/mL (≈ 46.1 µM)
MIC (St. PYOGENES): 8 µg/mL (≈ 23.1 µM)
MIC (Tr. MENTAGROPHYTES): 100 µg/mL (≈ 288 µM)
MIC (C. ALBICANS): 100 µg/mL (≈ 288 µM)
MIC (Sp. SCHENKII): 100 µg/mL (≈ 288 µM)
MIC (Tr. RUBRUM): > 100 µg/mL
MIC (Mic. CANIS): 50 µg/mL (≈ 144 µM)
LD50 at 168 h [1]: 1000 mg/kg

CCCCCCCC(=O)c1c(O)cc(O)c(CC=C(C)C)c1O [Compound 11, 2-Octanoyl-4-(3-methylbuten-2-yl)phloroglucinol]
MIC (S. AUREUS; [2]): 64 µg/mL (≈ 200 µM)
MIC (St. PYOGENES): 2 µg/mL (≈ 6.24 µM)
MIC (Tr. MENTAGROPHYTES): 100 µg/mL (≈ 312 µM)
MIC (C. ALBICANS): 100 µg/mL (≈ 312 µM)
MIC (Sp. SCHENKII): > 100 µg/mL
MIC (Tr. RUBRUM): 50 µg/mL (≈ 156 µM)
MIC (Mic. CANIS): 50 µg/mL (≈ 156 µM)
LD50 at 168 h [1]: 597 mg/kg

CC(C)=CCc1c(O)cc(O)c(C(=O)C2CCCCC2)c1O [Compound 8, 2-Hexahydrobenzoyl-4-(3-methylbuten-2-yl)phloroglucinol]
MIC (S. AUREUS; [2]): 32 µg/mL (≈ 105 µM)
MIC (St. PYOGENES): 8 µg/mL (≈ 26.3 µM)
MIC (Tr. MENTAGROPHYTES): 6 µg/mL (≈ 19.7 µM)
MIC (C. ALBICANS): 13 µg/mL (≈ 42.7 µM)
MIC (Sp. SCHENKII): 13 µg/mL (≈ 42.7 µM)
MIC (Tr. RUBRUM): 6 µg/mL (≈ 19.7 µM)
MIC (Mic. CANIS): 6 µg/mL (≈ 19.7 µM)
LD50 at 168 h [1]: > 1000 mg/kg

CC(C)CCC(=O)c1c(O)cc(O)c2c1OC(C)(C)CC2 [Compound 31, 5,7-Dihydroxy-2,2-dimethyl-8-isocaproylchroman]
MIC (S. AUREUS; [2]): 16 µg/mL (≈ 54.7 µM)
MIC (St. PYOGENES): 8 µg/mL (≈ 27.4 µM)
MIC (Tr. MENTAGROPHYTES): 6 µg/mL (≈ 20.5 µM)
MIC (C. ALBICANS): 100 µg/mL (≈ 342 µM)
MIC (Sp. SCHENKII): 6 µg/mL (≈ 20.5 µM)
MIC (Tr. RUBRUM): 25 µg/mL (≈ 85.5 µM)
MIC (Mic. CANIS): 13 µg/mL (≈ 44.5 µM)
LD50 at 168 h [1]: > 1000 mg/kg

CCCC(=O)c1c(O)cc(O)c2c1OC(C)(C)CC2 [Compound 30, 5,7-dihydroxy-2,2-dimethyl-8-butyryl chroman]
MIC (S. AUREUS; [2]): 32 µg/mL (≈ 121 µM)
MIC (St. PYOGENES): 32 µg/mL (≈ 121 µM)
MIC (Tr. MENTAGROPHYTES): 13 µg/mL (≈ 49.2 µM)
MIC (C. ALBICANS): 25 µg/mL (≈ 94.6 µM)
MIC (Sp. SCHENKII): 25 µg/mL (≈ 94.6 µM)
MIC (Tr. RUBRUM): 13 µg/mL (≈ 49.2 µM)
MIC (Mic. CANIS): 6 µg/mL (≈ 22.7 µM)
LD50 at 168 h [1]: > 1000 mg/kg
